Active and inactive are the calls of the source. The calls are words filed in the database; no cut-off is given here.
Tests used:
[1] = target: T1, N-lysine methyltransferase KMT5A (Homo sapiens) (UniProt Q9NQR1); test: Inhibition of SETD8 (unknown origin) using SAM as substrate at 10 uM by time-resolved fluorescence assay relative to control
T1 sequence (whole entry): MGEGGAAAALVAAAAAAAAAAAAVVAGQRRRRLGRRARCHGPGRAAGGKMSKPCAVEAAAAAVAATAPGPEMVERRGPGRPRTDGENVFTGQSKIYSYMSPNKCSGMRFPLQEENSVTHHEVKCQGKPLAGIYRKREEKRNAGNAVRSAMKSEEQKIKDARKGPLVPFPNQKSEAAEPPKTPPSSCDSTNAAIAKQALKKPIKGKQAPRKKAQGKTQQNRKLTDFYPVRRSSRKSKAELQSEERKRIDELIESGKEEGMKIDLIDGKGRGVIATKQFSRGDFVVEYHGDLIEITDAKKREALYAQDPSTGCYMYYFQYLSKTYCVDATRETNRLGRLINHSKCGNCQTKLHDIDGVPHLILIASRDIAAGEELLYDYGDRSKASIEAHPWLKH

[2] = target: T2, Histone-lysine N-methyltransferase EZH1 (Homo sapiens) (UniProt Q92800); test: Inhibition of human EZH1 using SAM as substrate at 10 uM by time-resolved fluorescence assay relative to control
T2 sequence (whole entry): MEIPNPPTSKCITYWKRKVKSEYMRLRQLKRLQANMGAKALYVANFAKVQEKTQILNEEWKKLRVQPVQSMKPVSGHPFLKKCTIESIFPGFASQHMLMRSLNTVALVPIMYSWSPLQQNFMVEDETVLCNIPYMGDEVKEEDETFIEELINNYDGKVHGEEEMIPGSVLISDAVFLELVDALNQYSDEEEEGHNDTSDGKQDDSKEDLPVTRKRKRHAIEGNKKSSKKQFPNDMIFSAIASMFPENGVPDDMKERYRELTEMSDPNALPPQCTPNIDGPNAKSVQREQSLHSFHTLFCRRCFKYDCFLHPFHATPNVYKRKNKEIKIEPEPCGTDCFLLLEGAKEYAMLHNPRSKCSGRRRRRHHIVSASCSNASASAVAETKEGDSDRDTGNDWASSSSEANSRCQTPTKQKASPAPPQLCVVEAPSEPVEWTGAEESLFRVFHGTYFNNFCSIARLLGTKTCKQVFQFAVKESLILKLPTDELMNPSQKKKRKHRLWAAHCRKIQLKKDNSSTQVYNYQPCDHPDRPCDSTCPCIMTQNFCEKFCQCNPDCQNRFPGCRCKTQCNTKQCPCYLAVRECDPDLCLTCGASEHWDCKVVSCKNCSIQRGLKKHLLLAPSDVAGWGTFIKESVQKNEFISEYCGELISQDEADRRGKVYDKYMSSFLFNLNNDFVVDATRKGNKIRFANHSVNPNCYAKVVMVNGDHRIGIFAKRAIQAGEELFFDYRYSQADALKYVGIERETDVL

[3] = target: Histone-lysine N-methyltransferase SETDB1 (Homo sapiens) (UniProt Q15047); test: Inhibition of SETDB1 (unknown origin) using SAM as substrate at 10 uM by time-resolved fluorescence assay relative to control
[4] = Tmax in Sprague-Dawley rat at 10 mg/kg, iv administered for 12 hrs by HPLC analysis; assay type: ADME, organism-based; conditions: in vivo
[5] = Oral bioavailability in Sprague-Dawley rat at 30 mg/kg administered for 24 hrs by HPLC analysis; assay type: ADME, organism-based; conditions: in vivo
[6] = Cytotoxicity against human L02 cells assessed as reduction in cell viability incubated for 72 hrs by MTT assay; assay type: toxicity, cell-based
[7] = Cytotoxicity against human MCF-10A cells assessed as reduction in cell viability incubated for 72 hrs by MTT assay; assay type: toxicity, cell-based
RD [8] = test: Downregulation of H3K27me3 expression in human RD cells at 5 uM incubated for 6 days by Western blotting analysis; assay type: functional, cell-based; conditions: time 6.0 day
RD [9] = test: Antitumor activity against human RD cells xenografted in BALB/c nude mouse assessed as tumor growth inhibition at 10 to 20 mg/kg, ip administered for 5 consecutive days followed by 2 rest days for 3 weeks; assay type: functional; conditions: dose 10-20 mg/kg
RD [10] = test: Antiproliferative activity against EZH2 and G9a knockdown human RD cells assessed as reduction in clone formation rate at 5 uM for 1 to 2 weeks with fresh medium replacement for every 2 to 3 days by crystal violet staining based microscopic analysis; assay type: functional, cell-based; conditions: time 1-2 weeks
RD [11] = test: Antitumor activity against human RD-EV cells xenografted in BALB/c nude mouse assessed as tumor growth inhibition at 20 mg/kg, ip administered for 15 days; assay type: functional; conditions: 360 h, time 15 day, read-out: TGI
RD [12] = test: Downregulation of H3K79me3 expression in human RD cells at 5 uM incubated for 6 days by immunoblotting analysis; assay type: functional, cell-based; conditions: time 6.0 day

Compound: COc1cc2c(NCc3c(C)cc(C)[nH]c3=O)nc(N3CCC(F)(F)CC3)nc2cc1OCCCN1CCCC1
- inhibition [1]: 11.2%
- inhibition [2]: 89.2%
- inhibition [3]: 7.79%
- Tmax [4]: 10.2 min
- bioavailability [5]: 92%
- CC50 at 72 h [6]: > 100 µM
- CC50 at 72 h [7]: > 100 µM
- Activity (RD [8]): Active
- TGI (RD [9]): 86.6%
- Activity (RD [10]): inactive
- inhibition in vivo at 20 mg/kg (RD [11]): 55.4%
- Activity (RD [12]): inactive

From ChEMBL document CHEMBL5338739, “Discovery of Dual Lysine Methyltransferase G9a and EZH2 Inhibitors with In Vivo Efficacy against Malignant Rhabdoid Tumor” (J Med Chem, 2023)
